Source: patent publication US6818780B2, “P-hydroxyphenyl propionic acid derivatives as antiproliferative agents” (Consejo Superior de Investigaciones Cientificas, priority 2000, dated 2004)

Tests used:
[1] = test system: human peripheral blood mononuclear cells; assay: Stability studies: antiproliferative activity of lactone kept one year in DMSO, human peripheral blood mononuclear cells; format: cell-based; conditions: for Proliferation of human peripheral blood mononuclear cells, Medium (cpm ± DS) / Proliferation of human peripheral blood mononuclear cells, PHA 10 μg/ml (cpm ± DS) / Proliferation of human peripheral blood mononuclear cells, PHA + rhIL-2 (cpm ± DS): sample kept one year at room temperature at 40.0 mg/ml in DMSO
Description: (§1) General culture conditions: All cell cultures were developed under conditions of sterility in a vertical laminar flow chamber, using single-use sterile materials or materials sterilised in an autoclave or with ethylene oxide. The cultures were conserved in a stove kept at a temperature of 37° C., in an atmosphere with 5% CO2 and relative humidity of 95%. In the various experiments performed, the purified CMSP cell preparations were incubated in sterile dishes with 96 wells at concentrations of 5×10^4 cells/well (200 μl) in the presence of different concentrations of different mitogens for 5 days.
(§2) The method used for quantifying the cell proliferation was analysis of the incorporation of ^3H-thymidine (^3H-T) into DNA synthesised de novo, detecting the emission of β radiation from the dry extracts of cell cultures to which the tritiated base had been added before its finalisation and collection. The synthesis of DNA was done in triplicate on sterile dishes with 96 flat-bottom wells.
(§3) From 20 to 24 hour prior to terminating the cell culture, 1 μCi of ^3H-T was added to each well containing medium; the cultures were gathered by suction through a glass filter, using a Skatron culture collector for this.
(§4) The synthesis of DNA has been expressed in counts per minute (cpm). Each test was conducted in triplicate, with those data having a variability greater than 10% compared to the mean of the triplicate being rejected, since they could indicate a technical error or contamination in the culture. The cultures were carried out at a constant cell volume per well, as well as at a constant volume of 200 μl.
The sample remains for one year at room temperature and at a concentration of 40.0 mg/ml in DMSO.

murine splenocytes = assay: Test of lymphocyte proliferation: proliferation of murine splenocytes (tritiated thymidine incorporation); format: cell-based, Bal b/c mice; conditions: range 100-0.75 μg/ml
[2] = test system: human peripheral blood mononuclear cells (CMSP); assay: Test on lymphocyte proliferation: human peripheral blood mononuclear cells (3H-thymidine incorporation), with or without rhIL-2; format: cell-based; conditions: 5 days; for Proliferation of human peripheral blood mononuclear cells, Con A 2 μg/ml (cpm ± DS) / Proliferation of human peripheral blood mononuclear cells, Medium (cpm ± DS) / Proliferation of human peripheral blood mononuclear cells, PHA 10 μg/ml (cpm ± DS) / Proliferation of human peripheral blood mononuclear cells, aCD3 5 μg/ml (cpm ± DS) / Proliferation of human peripheral blood mononuclear cells, aCD3 + Con A (cpm ± DS) / Proliferation of human peripheral blood mononuclear cells, aCD3 + PHA (cpm ± DS): no rhIL-2; for Proliferation of human peripheral blood mononuclear cells in the presence of rhIL-2, Con A 2 μg/ml (cpm ± DS) / Proliferation of human peripheral blood mononuclear cells in the presence of rhIL-2, Medium (cpm ± DS) / Proliferation of human peripheral blood mononuclear cells in the presence of rhIL-2, PHA 10 μg/ml (cpm ± DS) / Proliferation of human peripheral blood mononuclear cells in the presence of rhIL-2, aCD3 5 μg/ml (cpm ± DS) / Proliferation of human peripheral blood mononuclear cells in the presence of rhIL-2, aCD3 + Con A (cpm ± DS) / Proliferation of human peripheral blood mononuclear cells in the presence of rhIL-2, aCD3 + PHA (cpm ± DS): rhIL-2 100 UI/ml
Description: Tests on Human Peripheral Blood Mononuclear Cells Material and Methods:
In order to study more deeply the effects of lactone on cell proliferation, we checked whether the effects described in the above section on cells of murine origin were specific to the cell type and the species or whether, on the other hand, these effects were xeno-independent. For this, we purified human peripheral blood mononuclear cells from healthy controls and we proceeded to study the possible effects of inhibition on the proliferative activity of peripheral blood mononuclear cells (CMSP) from humans, induced by different mitogenic agents acting alone and/or in costimulation with other mitogens and in the presence or absence of recombinant human interleukin 2 (rhIL-2).
Mitogens: Phytohaemaglutinin M (PHA) (Difco Lab., Detroit, Mich., USA), Concanavalin A (Con A, 2 μg/ml, Sigma Chemical Co., Mich., USA), Immobilised anti-CD3 (OKT3, 5 μg/ml, Ortho-mune, Orthodiagnostic System) and rhIL-2 (100 IU/ml, Hoffman-La Roche, N.J., USA).
All the reagents included in these tests were diluted in RPMI 1640 culture medium (Whitaker Bioproducts, Walkersville, USA) supplemented with 10% of decomplemented foetal calf serum (Biochrom K G, Berlin), L-glutamin (2 mM, Biochrom K G), Hepes (25 mM, Biochrom K G) and antibiotic (1% penicillin streptomycin, Difco Lab, Detroit, Mich., USA).
Also, all the mitogens were optimised in a dose response way in order to obtaining the maximum proliferative response after 5 days of culture.
Venous blood: The CMSP were obtained from venous blood extracted by antecubital venous puncture. 50 ml of blood were extracted to which were added 50 U of calcic heparin and the mixture was diluted 1/1 (vol/vol) with PSS.
Human mononucleated cells: In order to isolate the CMSP they were proceeded to be separated from the rest of the blood components by means of the formation of a density gradient on Ficoll. The cells thus obtained are resuspended in PSS and centrifuged at 400×g for 10 minutes (washing process) and then resuspended in PSS. This operation is repeated three times. In the last of them, PSS is replaced with complete medium.
as §1, §2, §3, §4
Negative Control: Cells in the Presence of Complete Culture Medium
Positive Control: Stimulation of Cells without the Presence of Lactone […]

C=C1C(=O)OC(CCc2ccc(OC)cc2)C1C (stereo not shown) [lactone]
Proliferation of human peripheral blood mononuclear cells, Medium (cpm ± DS) ([1]; Lactone 0.25 μg/ml): 283 ± 9 cpm
Proliferation of human peripheral blood mononuclear cells, PHA 10 μg/ml (cpm ± DS) ([1]; Lactone 0.25 μg/ml): 60428 ± 5820 cpm
Proliferation of human peripheral blood mononuclear cells, PHA + rhIL-2 (cpm ± DS) ([1]; Lactone 0.25 μg/ml): 144693 ± 9470 cpm
Proliferation of human peripheral blood mononuclear cells, Medium (cpm ± DS) ([1]; Lactone 100 μg/ml): 47 ± 5 cpm
Proliferation of human peripheral blood mononuclear cells, PHA 10 μg/ml (cpm ± DS) ([1]; Lactone 100 μg/ml): 906 ± 251 cpm
Proliferation of human peripheral blood mononuclear cells, PHA + rhIL-2 (cpm ± DS) ([1]; Lactone 100 μg/ml): 341 ± 21 cpm
Stability over time of the product dissolved in dimethylsulphoxide (DMSO) ([1]; one year at room temperature, 40.0 mg/ml in DMSO, judged by antiproliferative activity): the antiproliferative biological activity of lactone is demonstrated
Cytotoxicity effects on murine splenocytes (murine splenocytes): Nor was are cytotoxicity effects found
Proliferation of human peripheral blood mononuclear cells, Con A 2 μg/ml (cpm ± DS) ([2]; Lactone 0.0001 μg/ml): 75329 ± 9144 cpm
Proliferation of human peripheral blood mononuclear cells, Medium (cpm ± DS) ([2]; Lactone 0.0001 μg/ml): 3175 ± 1574 cpm
Proliferation of human peripheral blood mononuclear cells, PHA 10 μg/ml (cpm ± DS) ([2]; Lactone 0.0001 μg/ml): 76612 ± 15020 cpm
Proliferation of human peripheral blood mononuclear cells, aCD3 5 μg/ml (cpm ± DS) ([2]; Lactone 0.0001 μg/ml): 44721 ± 4082 cpm
Proliferation of human peripheral blood mononuclear cells, aCD3 + Con A (cpm ± DS) ([2]; Lactone 0.0001 μg/ml): 115090 ± 4133 cpm
Proliferation of human peripheral blood mononuclear cells, aCD3 + PHA (cpm ± DS) ([2]; Lactone 0.0001 μg/ml): 105395 ± 375 cpm
Proliferation of human peripheral blood mononuclear cells in the presence of rhIL-2, Con A 2 μg/ml (cpm ± DS) ([2]; Lactone 0.0001 μg/ml): 96972 ± 18274 cpm
Proliferation of human peripheral blood mononuclear cells in the presence of rhIL-2, Medium (cpm ± DS) ([2]; Lactone 0.0001 μg/ml): 56451 ± 4965 cpm
Proliferation of human peripheral blood mononuclear cells in the presence of rhIL-2, PHA 10 μg/ml (cpm ± DS) ([2]; Lactone 0.0001 μg/ml): 130524 ± 8929 cpm
Proliferation of human peripheral blood mononuclear cells in the presence of rhIL-2, aCD3 5 μg/ml (cpm ± DS) ([2]; Lactone 0.0001 μg/ml): 87091 ± 7078 cpm
Proliferation of human peripheral blood mononuclear cells in the presence of rhIL-2, aCD3 + Con A (cpm ± DS) ([2]; Lactone 0.0001 μg/ml): 154981 ± 15723 cpm
Proliferation of human peripheral blood mononuclear cells in the presence of rhIL-2, aCD3 + PHA (cpm ± DS) ([2]; Lactone 0.0001 μg/ml): 133621 ± 12440 cpm
Proliferation of human peripheral blood mononuclear cells, Con A 2 μg/ml (cpm ± DS) ([2]; Lactone 0.01 μg/ml): 55503 ± 9023 cpm
Proliferation of human peripheral blood mononuclear cells, Medium (cpm ± DS) ([2]; Lactone 0.01 μg/ml): 2867 ± 1527 cpm
Proliferation of human peripheral blood mononuclear cells, PHA 10 μg/ml (cpm ± DS) ([2]; Lactone 0.01 μg/ml): 71092 ± 3555 cpm
Proliferation of human peripheral blood mononuclear cells, aCD3 5 μg/ml (cpm ± DS) ([2]; Lactone 0.01 μg/ml): 40378 ± 219 cpm
Proliferation of human peripheral blood mononuclear cells, aCD3 + Con A (cpm ± DS) ([2]; Lactone 0.01 μg/ml): 93139 ± 3070 cpm
Proliferation of human peripheral blood mononuclear cells, aCD3 + PHA (cpm ± DS) ([2]; Lactone 0.01 μg/ml): 67011 ± 8270 cpm
Proliferation of human peripheral blood mononuclear cells in the presence of rhIL-2, Con A 2 μg/ml (cpm ± DS) ([2]; Lactone 0.01 μg/ml): 54196 ± 80 cpm
Proliferation of human peripheral blood mononuclear cells in the presence of rhIL-2, Medium (cpm ± DS) ([2]; Lactone 0.01 μg/ml): 42568 ± 8631 cpm
Proliferation of human peripheral blood mononuclear cells in the presence of rhIL-2, PHA 10 μg/ml (cpm ± DS) ([2]; Lactone 0.01 μg/ml): 106754 ± 698 cpm
Proliferation of human peripheral blood mononuclear cells in the presence of rhIL-2, aCD3 5 μg/ml (cpm ± DS) ([2]; Lactone 0.01 μg/ml): 39771 ± 3258 cpm
Proliferation of human peripheral blood mononuclear cells in the presence of rhIL-2, aCD3 + Con A (cpm ± DS) ([2]; Lactone 0.01 μg/ml): 130949 ± 16623 cpm
Proliferation of human peripheral blood mononuclear cells in the presence of rhIL-2, aCD3 + PHA (cpm ± DS) ([2]; Lactone 0.01 μg/ml): 94165 ± 15647 cpm
Proliferation of human peripheral blood mononuclear cells, Con A 2 μg/ml (cpm ± DS) ([2]; Lactone 1 μg/ml): 13294 ± 3395 cpm
Proliferation of human peripheral blood mononuclear cells, Medium (cpm ± DS) ([2]; Lactone 1 μg/ml): 1805 ± 1870 cpm
Proliferation of human peripheral blood mononuclear cells, PHA 10 μg/ml (cpm ± DS) ([2]; Lactone 1 μg/ml): 25118 ± 6642 cpm
Proliferation of human peripheral blood mononuclear cells, aCD3 5 μg/ml (cpm ± DS) ([2]; Lactone 1 μg/ml): 1286 ± 255 cpm
Proliferation of human peripheral blood mononuclear cells, aCD3 + Con A (cpm ± DS) ([2]; Lactone 1 μg/ml): 829 ± 484 cpm
Proliferation of human peripheral blood mononuclear cells, aCD3 + PHA (cpm ± DS) ([2]; Lactone 1 μg/ml): 8689 ± 5361 cpm
Proliferation of human peripheral blood mononuclear cells in the presence of rhIL-2, Con A 2 μg/ml (cpm ± DS) ([2]; Lactone 1 μg/ml): 71210 ± 5211 cpm
Proliferation of human peripheral blood mononuclear cells in the presence of rhIL-2, Medium (cpm ± DS) ([2]; Lactone 1 μg/ml): 9548 ± 808 cpm
